Assay results published in PubChem BioAssay (NCI).
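Growth conditions: 96-well plates. Treatment: test compound, 48 hours, 5 concentrations. Analysis: linear interpolation between bracketing concentrations; unreached endpoints set to highest concentration. At the TGI there is no net growth.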

How the values were obtained:
Assay in all cases: NCI-60 cell line screen, 48 h
[1] = system: HCC-2998 colon
[2] = system: DLD-1 colon
[3] = system: XF 498 CNS
[4] = system: SF-295 CNS
[5] = system: SNB-75 CNS
[6] = system: EKVX NSCLC
[7] = system: M19-MEL melanoma
[8] = system: RPMI-8226 leukemia
[9] = system: MOLT-4 leukemia
[10] = system: HT29 colon
[11] = system: KM20L2 colon
[12] = system: OVCAR-4 ovarian
[13] = system: HOP-18 NSCLC
[14] = system: SK-MEL-5 melanoma
[15] = system: M14 melanoma
[16] = system: HOP-62 NSCLC
[17] = system: LXFL 529 NSCLC
[18] = system: HCT-116 colon
[19] = system: UACC-62 melanoma
[20] = system: HCT-15 colon
[21] = system: CCRF-CEM leukemia
[22] = system: SN12C renal
[23] = system: MALME-3M melanoma
[24] = system: IGROV1 ovarian
[25] = system: A498 renal
[26] = system: UACC-257 melanoma
[27] = system: SR leukemia
[28] = system: KM12 colon
[29] = system: NCI-H460 lung
[30] = system: DMS 273 small cell lung
[31] = system: SNB-19 CNS
[32] = system: SF-268 CNS
[33] = system: HL-60(TB) leukemia
[34] = system: CAKI-1 renal
[35] = system: RXF-631 renal
[36] = system: ACHN renal
[37] = system: OVCAR-3 ovarian
[38] = system: UO-31 renal
[39] = system: NCI-H226 lung
[40] = system: 786-0 renal
[41] = system: A549 NSCLC
[42] = system: SK-OV-3 ovarian
[43] = system: RXF 393 renal
[44] = system: SK-MEL-2 melanoma
[45] = system: NCI-H23 lung
[46] = system: TK-10 renal
[47] = system: COLO 205 colon
[48] = system: SF-539 CNS
[49] = system: U251 CNS
[50] = system: OVCAR-8 ovarian
[51] = system: SW-620 colon
[52] = system: DMS 114 small cell lung
[53] = system: HOP-92 NSCLC
[54] = system: SNB-78 CNS
[55] = system: SK-MEL-28 melanoma
[56] = system: K-562 leukemia
[57] = system: NCI-H522 lung
[58] = system: OVCAR-5 ovarian
[59] = system: LOX IMVI melanoma

SMILES: COc1ccc(Cc2nc3ccccc3s2)cc1OC
- TGI [1]: 49 µM
- TGI [2]: 31.7 µM
- TGI [3]: 28.8 µM
- TGI [4]: 28.9 µM
- TGI [5]: 36.8 µM
- TGI [6]: 37.1 µM
- TGI [7]: 29.4 µM
- TGI [8]: 70.9 µM
- TGI [9]: 63.9 µM
- TGI [10]: 35.8 µM
- TGI [11]: 36.5 µM
- TGI [12]: 37.7 µM
- TGI [13]: 62.2 µM
- TGI [14]: 30.1 µM
- TGI [15]: 31.6 µM
- TGI [16]: 93.5 µM
- TGI [17]: 31.4 µM
- TGI [18]: 29.2 µM
- TGI [19]: 31.4 µM
- TGI [20]: 60.7 µM
- TGI [21]: 44.7 µM
- TGI [22]: 30.8 µM
- TGI [23]: 32.6 µM
- TGI [24]: 35.7 µM
- TGI [25]: 49.5 µM
- TGI [26]: 32.9 µM
- TGI [27]: 57.1 µM
- TGI [28]: 32.2 µM
- TGI [29]: 38.3 µM
- TGI [30]: 29.2 µM
- TGI [31]: 99.9 µM
- TGI [32]: 29.5 µM
- TGI [33]: 45.3 µM
- TGI [34]: 31.3 µM
- TGI [35]: 31.7 µM
- TGI [36]: 31 µM
- TGI [37]: 31 µM
- TGI [38]: 30 µM
- TGI [39]: 45.7 µM
- TGI [40]: 31.9 µM
- TGI [41]: 61.8 µM
- TGI [42]: 43.5 µM
- TGI [43]: 34.7 µM
- TGI [44]: 42.6 µM
- TGI [45]: 40.4 µM
- TGI [46]: 84.7 µM
- TGI [47]: 27.7 µM
- TGI [48]: 31.2 µM
- TGI [49]: 27.7 µM
- TGI [50]: 30.9 µM
- TGI [51]: 32.7 µM
- TGI [52]: 29.9 µM
- TGI [53]: 36.5 µM
- TGI [54]: 44.8 µM
- TGI [55]: 31.9 µM
- TGI [56]: 49.6 µM
- TGI [57]: 32.2 µM
- TGI [58]: 37.6 µM

SMILES: COC(=O)/C(C#N)=C1\CCc2ccccc21
- TGI [1]: > 100 µM
- TGI [2]: > 100 µM
- TGI [3]: > 100 µM
- TGI [4]: > 100 µM
- TGI [5]: > 100 µM
- TGI [6]: > 100 µM
- TGI [7]: > 100 µM
- TGI [8]: > 100 µM
- TGI [9]: > 100 µM
- TGI [10]: > 100 µM
- TGI [11]: > 100 µM
- TGI [12]: > 100 µM
- TGI [14]: > 100 µM
- TGI [15]: > 100 µM
- TGI [17]: > 100 µM
- TGI [19]: > 100 µM
- TGI [20]: > 100 µM
- TGI [21]: > 100 µM
- TGI [22]: > 100 µM
- TGI [23]: > 100 µM
- TGI [24]: > 100 µM
- TGI [25]: > 100 µM
- TGI [26]: > 100 µM
- TGI [28]: > 100 µM
- TGI [29]: > 100 µM
- TGI [59]: > 100 µM
- TGI [30]: > 100 µM
- TGI [31]: > 100 µM
- TGI [32]: > 100 µM
- TGI [33]: > 100 µM
- TGI [34]: > 100 µM
- TGI [36]: > 100 µM
- TGI [37]: > 100 µM
- TGI [38]: > 100 µM
- TGI [39]: > 100 µM
- TGI [40]: > 100 µM
- TGI [41]: > 100 µM
- TGI [42]: > 100 µM
- TGI [43]: > 100 µM
- TGI [44]: > 100 µM
- TGI [45]: > 100 µM
- TGI [46]: > 100 µM
- TGI [47]: > 100 µM
- TGI [48]: > 100 µM
- TGI [50]: > 100 µM
- TGI [51]: > 100 µM
- TGI [52]: > 100 µM
- TGI [53]: > 100 µM
- TGI [55]: > 100 µM
- TGI [56]: > 100 µM
- TGI [57]: > 100 µM
- TGI [58]: > 100 µM

SMILES: Nc1ccc(C(=O)N/C(=C\c2cccc([N+](=O)[O-])c2)c2nc3ccc(Cl)cc3[nH]2)cc1
- TGI [1]: > 100 µM
- TGI [2]: > 100 µM
- TGI [3]: > 100 µM
- TGI [4]: > 100 µM
- TGI [6]: > 100 µM
- TGI [7]: > 100 µM
- TGI [9]: > 100 µM
- TGI [10]: > 100 µM
- TGI [11]: > 100 µM
- TGI [12]: > 100 µM
- TGI [14]: > 100 µM
- TGI [15]: > 100 µM
- TGI [17]: > 100 µM
- TGI [19]: > 100 µM
- TGI [20]: > 100 µM
- TGI [21]: > 100 µM
- TGI [22]: > 100 µM
- TGI [23]: > 100 µM
- TGI [24]: > 100 µM
- TGI [27]: > 100 µM
- TGI [28]: > 100 µM
- TGI [31]: > 100 µM
- TGI [32]: > 100 µM
- TGI [34]: > 100 µM
- TGI [35]: > 100 µM
- TGI [36]: > 100 µM
- TGI [37]: > 100 µM
- TGI [38]: > 100 µM
- TGI [40]: > 100 µM
- TGI [41]: > 100 µM
- TGI [42]: > 100 µM
- TGI [43]: > 100 µM
- TGI [44]: > 100 µM
- TGI [45]: > 100 µM
- TGI [46]: > 100 µM
- TGI [47]: > 100 µM
- TGI [48]: > 100 µM
- TGI [49]: > 100 µM
- TGI [50]: > 100 µM
- TGI [51]: > 100 µM
- TGI [52]: > 100 µM
- TGI [53]: 75.8 µM
- TGI [54]: > 100 µM
- TGI [55]: > 100 µM
- TGI [56]: > 100 µM
- TGI [57]: > 100 µM
- TGI [58]: > 100 µM
